From ChEMBL document CHEMBL1201862, “PubChem BioAssay data set” (2004)
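Step 1: Grow cells in 96-well plates. Step 2: Expose to compound for 48 hours at 5 concentrations. Step 3: Interpolate endpoints linearly; if unreached, use highest concentration. GI50: concentration for 50% inhibition of growth.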 Calls of active or inactive are those of the source. No stated cut-off is given here; in the data, active = GI50 up to about 1.1 µM and inactive = higher.

Tests used:
Assay in all cases: inhibition of tumour cell growth, NCI panel, 48 h
SK-MEL-5 = tested on: SK-MEL-5
LXFL 529 = tested on: LXFL 529
SF-268 = tested on: SF-268
HOP-92 = tested on: HOP-92
Malme-3M = tested on: Malme-3M
SK-MEL-28 = tested on: SK-MEL-28
NCI-H226 = tested on: NCI-H226
SF-295 = tested on: SF-295
EKVX = tested on: EKVX
NCI-H522 = tested on: NCI-H522
HT-29 = tested on: HT-29
786-0 = tested on: 786-0
SK-OV-3 = tested on: SK-OV-3
UACC-62 = tested on: UACC-62
UO-31 = tested on: UO-31
SNB-19 = tested on: SNB-19
BT-549 = tested on: BT-549
NCI/ADR-RES = tested on: NCI/ADR-RES
MCF7 = tested on: MCF7
MDA-MB-231 = tested on: MDA-MB-231

Structure (SMILES) | GI50 (SK-MEL-5) | GI50 (LXFL 529) | GI50 (SF-268) | GI50 (HOP-92) | GI50 (Malme-3M) | GI50 (SK-MEL-28) | GI50 (NCI-H226) | GI50 (SF-295) | GI50 (EKVX) | GI50 (NCI-H522) | GI50 (HT-29) | GI50 (786-0) | GI50 (SK-OV-3) | GI50 (UACC-62) | GI50 (UO-31) | GI50 (SNB-19) | GI50 (BT-549) | GI50 (NCI/ADR-RES) | GI50 (MCF7) | GI50 (MDA-MB-231)
C=CCNC(=O)NCCCC(NC(C)=O)C(=O)NCc1ccccc1 (stereo not given) | > 100 µM (inactive) | > 100 µM (inactive) | > 100 µM (inactive) | > 100 µM (inactive) | > 100 µM (inactive) | > 100 µM (inactive) | > 100 µM (inactive) | > 100 µM (inactive) | > 100 µM (inactive) | > 100 µM (inactive) | > 100 µM (inactive) | > 100 µM (inactive) | > 100 µM (inactive) | > 100 µM (inactive) | > 100 µM (inactive) | > 100 µM (inactive) | – | – | – | –
O=C1/C(=C(\Nc2ccccc2)c2ccccc2)C=NN1c1ccccc1 | 26.7 µM (inactive) | > 100 µM (inactive) | > 100 µM (inactive) | – | 59 µM (inactive) | > 100 µM (inactive) | – | > 100 µM (inactive) | > 100 µM (inactive) | > 100 µM (inactive) | 47.9 µM (inactive) | > 100 µM (inactive) | > 100 µM (inactive) | > 100 µM (inactive) | > 100 µM (inactive) | > 100 µM (inactive) | – | – | – | –
COC(=O)C(=O)C(C(=O)C=C(C)C)C(=O)C(=O)Nc1nc2ccc([N+](=O)[O-])cc2s1 (stereo not given) | 35.7 µM (inactive) | 83.4 µM (inactive) | 39 µM (inactive) | 27.3 µM (inactive) | > 100 µM (inactive) | 63.2 µM (inactive) | 46.1 µM (inactive) | – | 33.9 µM (inactive) | 23.7 µM (inactive) | > 100 µM (inactive) | > 100 µM (inactive) | 39.9 µM (inactive) | 38.5 µM (inactive) | 41.5 µM (inactive) | > 100 µM (inactive) | – | – | – | –
OCCCNc1ccnc2cc(Cl)ccc12 | > 100 µM (inactive) | > 100 µM (inactive) | > 100 µM (inactive) | > 100 µM (inactive) | > 100 µM (inactive) | > 100 µM (inactive) | 61.9 µM (inactive) | > 100 µM (inactive) | > 100 µM (inactive) | > 100 µM (inactive) | > 100 µM (inactive) | > 100 µM (inactive) | > 100 µM (inactive) | > 100 µM (inactive) | 25.5 µM (inactive) | > 100 µM (inactive) | – | – | – | –
Nc1c(-c2ccc(Cl)cc2Cl)[n+]([O-])c2ccccc2[n+]1[O-] | > 100 µM (inactive) | > 100 µM (inactive) | > 100 µM (inactive) | – | > 100 µM (inactive) | > 100 µM (inactive) | > 100 µM (inactive) | > 100 µM (inactive) | > 100 µM (inactive) | 37.4 µM (inactive) | > 100 µM (inactive) | > 100 µM (inactive) | > 100 µM (inactive) | > 100 µM (inactive) | > 100 µM (inactive) | > 100 µM (inactive) | – | – | – | –
COc1cc2c(c(OC)c1O)-c1ccc(SC)c(=O)cc1C(NC(C)=O)CC2 (stereo not given) | < 0.01 µM (active) | < 0.01 µM (active) | < 0.0107 µM (active) | 0.0124 µM (active) | < 0.01 µM (active) | < 0.01 µM (active) | 0.532 µM (active) | 0.0184 µM (active) | 39.7 µM (inactive) | < 0.01 µM (active) | 0.0119 µM (active) | 0.0545 µM (active) | 0.215 µM (active) | < 0.0119 µM (active) | 5.96 µM (inactive) | 0.019 µM (active) | – | – | – | –
CC(=O)OC1(C(C)=O)CC2(c3ccccc3)OC1(c1ccccc1)c1ccccc12 (stereo not given) | 3.37 µM (inactive) | 7.53 µM (inactive) | 52.5 µM (inactive) | 17.7 µM (inactive) | 18.6 µM (inactive) | 31.6 µM (inactive) | 5.98 µM (inactive) | 33.3 µM (inactive) | 5.26 µM (inactive) | 4.26 µM (inactive) | 30.1 µM (inactive) | 31 µM (inactive) | 46.9 µM (inactive) | 4.36 µM (inactive) | 12 µM (inactive) | 7.73 µM (inactive) | – | – | – | –
NCCCOCC(=O)O | > 100 µM (inactive) | > 100 µM (inactive) | > 100 µM (inactive) | > 100 µM (inactive) | > 100 µM (inactive) | > 100 µM (inactive) | > 100 µM (inactive) | > 100 µM (inactive) | > 100 µM (inactive) | – | > 100 µM (inactive) | > 100 µM (inactive) | > 100 µM (inactive) | > 100 µM (inactive) | > 100 µM (inactive) | > 100 µM (inactive) | – | – | – | –
O=C(O)[C@@H](NS(=O)(=O)c1ccc2ccccc2c1)c1ccccc1 | – | > 100 µM (inactive) | > 100 µM (inactive) | > 100 µM (inactive) | > 100 µM (inactive) | > 100 µM (inactive) | – | – | – | > 100 µM (inactive) | > 100 µM (inactive) | > 100 µM (inactive) | > 100 µM (inactive) | > 100 µM (inactive) | > 100 µM (inactive) | > 100 µM (inactive) | – | – | – | –
CC(=O)O[C@H]1C(N(C)C(=O)c2ccccc2)CC[C@]2(C)C3CC[C@@]4(C)C(CC(O)[C@@H]4C(C)N(C)C)[C@@H]3CCC12 (stereo not given in full) | > 100 µM (inactive) | > 100 µM (inactive) | > 100 µM (inactive) | > 100 µM (inactive) | > 100 µM (inactive) | > 100 µM (inactive) | > 100 µM (inactive) | > 100 µM (inactive) | > 100 µM (inactive) | > 100 µM (inactive) | > 100 µM (inactive) | > 100 µM (inactive) | > 100 µM (inactive) | > 100 µM (inactive) | – | > 100 µM (inactive) | – | – | – | –
Cc1ccc(S(=O)(=O)c2c(N)n(CCN(C)C)c3nc4ccccc4nc23)cc1 | > 100 µM (inactive) | > 100 µM (inactive) | > 100 µM (inactive) | > 100 µM (inactive) | > 100 µM (inactive) | > 100 µM (inactive) | > 100 µM (inactive) | > 100 µM (inactive) | > 100 µM (inactive) | 3.13 µM (inactive) | > 100 µM (inactive) | > 100 µM (inactive) | > 100 µM (inactive) | – | > 100 µM (inactive) | > 100 µM (inactive) | – | – | – | –
O=C(OC(/C=C/c1ccccc1)P1(=O)N(Cc2ccccc2)[C@@H]2CCCC[C@H]2N1Cc1ccccc1)c1ccccc1 (stereo not given in full) | 3.14 µM (inactive) | – | 6.37 µM (inactive) | 2.08 µM (inactive) | 3.54 µM (inactive) | 9.82 µM (inactive) | 6.43 µM (inactive) | 4.09 µM (inactive) | 4.56 µM (inactive) | 3.17 µM (inactive) | 3.4 µM (inactive) | 4.38 µM (inactive) | 5.06 µM (inactive) | 5.3 µM (inactive) | 3.34 µM (inactive) | 5.43 µM (inactive) | 4.26 µM (inactive) | 2.74 µM (inactive) | 3.52 µM (inactive) | 2.82 µM (inactive)
Oc1ccccc1/C=N/Nc1nnc2c3ccccc3c3ccccc3c2n1 | 48.3 µM (inactive) | – | > 100 µM (inactive) | > 100 µM (inactive) | 59.6 µM (inactive) | > 100 µM (inactive) | > 100 µM (inactive) | 32.8 µM (inactive) | > 100 µM (inactive) | 20 µM (inactive) | > 100 µM (inactive) | > 100 µM (inactive) | 58.3 µM (inactive) | 61.4 µM (inactive) | > 100 µM (inactive) | > 100 µM (inactive) | > 100 µM (inactive) | 47.9 µM (inactive) | 32.3 µM (inactive) | > 100 µM (inactive)
CSCCCNC(=O)c1csc(-c2csc(CCNC(=O)CNC(=O)OC(C)(C)C)n2)n1 | 47.4 µM (inactive) | – | > 100 µM (inactive) | > 100 µM (inactive) | > 100 µM (inactive) | > 100 µM (inactive) | > 100 µM (inactive) | > 100 µM (inactive) | > 100 µM (inactive) | > 100 µM (inactive) | > 100 µM (inactive) | > 100 µM (inactive) | > 100 µM (inactive) | 28.6 µM (inactive) | > 100 µM (inactive) | > 100 µM (inactive) | 35.4 µM (inactive) | > 100 µM (inactive) | 46.6 µM (inactive) | > 100 µM (inactive)
CCOC(=O)c1cc(-c2ccc(OC)c(OC)c2)c[nH]1 | > 10 µM (inactive) | – | > 10 µM (inactive) | > 10 µM (inactive) | > 10 µM (inactive) | > 10 µM (inactive) | > 10 µM (inactive) | > 10 µM (inactive) | > 10 µM (inactive) | > 10 µM (inactive) | > 10 µM (inactive) | > 10 µM (inactive) | > 10 µM (inactive) | > 10 µM (inactive) | > 10 µM (inactive) | > 10 µM (inactive) | > 10 µM (inactive) | > 10 µM (inactive) | > 10 µM (inactive) | > 10 µM (inactive)
CC(=O)OCC1OC(Nn2c(=O)[nH]c3ccccc3c2=O)C(OC(C)=O)C(OC(C)=O)C1OC(C)=O (stereo not given) | > 100 µM (inactive) | – | > 100 µM (inactive) | 89.1 µM (inactive) | > 100 µM (inactive) | > 100 µM (inactive) | > 100 µM (inactive) | > 100 µM (inactive) | > 100 µM (inactive) | > 100 µM (inactive) | > 100 µM (inactive) | > 100 µM (inactive) | > 100 µM (inactive) | > 100 µM (inactive) | 70.3 µM (inactive) | > 100 µM (inactive) | > 100 µM (inactive) | > 100 µM (inactive) | > 100 µM (inactive) | > 100 µM (inactive)
